Assay results as given in US20110311601A1, “ANTIMICROBIAL MEDICAL DEVICES” (priority 2010, published 2011).
Where no end group is shown, it is not given here.

Experiments:
Assay in all cases: micro-dilution assay (MBC, LD90)
[1] = test system: Stahylococcus aureus ATCC 12600; type: cell-based, Staphylococcus aureus
Experimental: The anti-bacterial activity of hβD2 was tested by a micro-dilution assay. Bacteria and fungi were streaked from a glycerol stock onto a Brain Heart Infusion (BHI) agar plate (3.7% w/v BHI Bouillon, 1.5% w/v Agar), grown overnight at 37° C. and 30° C., respectively and subsequently used to inoculate 40 ml of 3.7% w/v BHI Bouillon without any antibiotics in 100 ml flasks. Fresh cells were harvested by centrifugation at 16000 rpm for 10 min and washed twice with 10 mM sodium phosphate buffer, pH 7.2. The optical density was adjusted to 10^4 cells/ml. For anti-bacterial testing hβD2 was incubated in one well of a microtiter plate containing 100 μl of the bacterial suspension. Therefore, ten microlitres of hβD2 solution with a range of final concentrations tested from 0.0125 up to and including 100 mg/l was added to the bacterial suspension and incubated at 37° C. and 30° C., respectively for 2 h before colony forming units were determined. Colony forming units (CFU) were determined after plating 100 μl of a 1:100 dilution of the bacterial suspension on petri dishes with BHI medium and incubating them overnight at 37° C. For every group of the hβD2 added samples and the controls, 5 independent anti-bacterial assays were performed. A control (NC) of bacterial growth was examined for every independent assay. […]

[2] = test system: Acinetobacter baumannii ATCC 19606; type: cell-based
Outline: (§1)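 Washed cells at 10^4 cells/ml in 10 mM sodium phosphate, pH 7.2, were exposed to hβD2 at final 0.0125–100 mg/l for 2 h (37° C bacteria, 30° C fungi). CFU were counted after overnight plating and expressed as % killing versus an untreated control; MBC = 99.9% kill, LD90 = 90% kill.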

[3] = test system: Acinetobacter haemolyticus ATCC 17906; type: cell-based
Outline: as §1

[4] = test system: Actinobacillus actinommycetemcomitans NCTC 10979; type: cell-based
Outline: as §1

[5] = test system: Brevundimonas diminuta ATCC 11568; type: cell-based
Outline: as §1

[6] = test system: Candida albicans ATCC 10231; type: cell-based
Outline: as §1

[7] = test system: Candida albicans C.a 14 (wild-type); type: cell-based
Outline: as §1

[8] = test system: Citrobacter freundii UR 1776/03 (wild-type); type: cell-based
Outline: as §1

[9] = test system: Corynebacterium amycolatum RV A2/97; type: cell-based
Outline: as §1

[10] = test system: Corynebacterium pseudodiphtheriae RV A1/95; type: cell-based
Outline: as §1

[11] = test system: Cryptococcus neoformans ATCC 62066; type: cell-based
Outline: as §1

[12] = test system: Enterobacter cloacae Va 11263/03 (wild-type); type: cell-based
Outline: as §1

[13] = test system: Enterobacter cloacae Va 12270/03 (wild-type); type: cell-based
Outline: as §1

[14] = test system: Staphylococcus epidermidis ATCC 14990; type: cell-based
Outline: as §1

[15] = test system: Stenotrophomonas maltophilia ATCC 10257; type: cell-based
Outline: as §1

Substance: human β-defensin-2 (GIGDPVTCLKSGAICHPVFCPRRYKQIGTCGLPGTKCCKKP; ends and bridges not checked; cysteine pairing not given here) [hβD2, recombinant hβD2]
- LD 90 = μg/ml 90% killing [1]: 25 µg/mL
- MBC = μg/ml 99.9% killing [1]: 100 µg/mL
- LD 90 = μg/ml 90% killing [2]: 12.5 µg/mL
- MBC = μg/ml 99.9% killing [2]: 25 µg/mL
- LD 90 = μg/ml 90% killing [3]: 0.39 µg/mL
- MBC = μg/ml 99.9% killing [3]: 1.56 µg/mL
- LD 90 = μg/ml 90% killing [4]: 100 µg/mL
- MBC = μg/ml 99.9% killing [4]: >100 µg/mL
- LD 90 = μg/ml 90% killing [5]: 6.25 µg/mL
- MBC = μg/ml 99.9% killing [5]: 12.5 µg/mL
- LD 90 = μg/ml 90% killing [6]: 12.5 µg/mL
- MBC = μg/ml 99.9% killing [6]: 25 µg/mL
- LD 90 = μg/ml 90% killing [7]: 12.5 µg/mL
- MBC = μg/ml 99.9% killing [7]: 25 µg/mL
- LD 90 = μg/ml 90% killing [8]: 1.56 µg/mL
- MBC = μg/ml 99.9% killing [8]: 6.25 µg/mL
- LD 90 = μg/ml 90% killing [9]: 6.25 µg/mL
- MBC = μg/ml 99.9% killing [9]: 25 µg/mL
- LD 90 = μg/ml 90% killing [10]: 12.5 µg/mL
- MBC = μg/ml 99.9% killing [10]: 12.5 µg/mL
- LD 90 = μg/ml 90% killing [11]: 0.78 µg/mL
- MBC = μg/ml 99.9% killing [11]: 12.5 µg/mL
- LD 90 = μg/ml 90% killing [12]: 12.5 µg/mL
- MBC = μg/ml 99.9% killing [12]: 50 µg/mL
- LD 90 = μg/ml 90% killing [13]: 6.25 µg/mL
- MBC = μg/ml 99.9% killing [13]: 12.5 µg/mL
- LD 90 = μg/ml 90% killing [14]: 50 µg/mL
- MBC = μg/ml 99.9% killing [14]: 100 µg/mL
- LD 90 = μg/ml 90% killing [15]: 6.25 µg/mL
- MBC = μg/ml 99.9% killing [15]: 25 µg/mL
